These are literature values, as cited in patent US11672759B2 (priority 2017, dated 2023).

The conditions of this data set: estimated.

For the compound `COc1cc2c(c(OC)c1OC)-c1ccc(OC)c(=O)cc1[C@@H](NC(C)=O)CC2` [colchicine, N-((7S)-5,6,7,9-tetrahydro-1,2,3,10-tetramethoxy-9-oxobenzo(a)heptalen-7-yl)-acetamide], the effective dose result was “approximately 0.015 mg/kg”, the toxic dose entry is “greater than 0.1 mg/kg” and the typically lethal dose was “approximately 0.8 mg/kg”.
